# Source: patent US20250108038A1 (priority 2023, published 2025)
# “Also recorded” adds a separate entry of the source. Where two headings read alike, the source gives them in different places.
# Key:
# [1] = tested on: human 3D intestinal model (EpiIntestinal); experiment: Intestinal permeability in the EpiIntestinal model; type: in vitro ADME; details: apical dose 100 μL of 10 mM stock solution, 120 min, 37° C.
# Experimental: FIG. 2A. Intestinal permeability of Compound I-19. […] Samples were taken from the basolateral compartment at 0, 15, 30, 60, and 120 min. and were analyzed by LCMSMS for presence of parent compound. Values represent mean+SEM of n=3 separate experiments.
# FIG. 2B. Intestinal permeability of Compound I-4 was determined in the human 3D intestinal model (Epilntestinal) from MatTek Corp. Tissues were dosed apically with 100 μL of 10 mM stock solution (4.25 μg) at 0 min. and the tissues were incubated with the test articles at 37° C. for a total of 120 min. Samples were taken from the basolateral compartment at 0, 15, 30, 60, and 120 min. and were analyzed by LCMSMS for presence of parent compound. Values represent mean+SEM of n=3 separate experiments.
# Human 3D EpiIntestinal tissue model (MatTek, SMI-100, Lot #33921 Kit B) was used to model the intestine and was used for permeability studies. This model offers […] advantages over other permeability testing models such as Caco-2 cells. […]
# The test articles (100 wL of 100 μM solution, or 4.25 ug) was applied to the apical surface of the EpiIntestinal model. […] Metabolic stability was determined by loss of parent compound using LCMSMS.
# All data was compiled and organized in Excel. Mean, standard deviation, and standard deviation of the mean were calculated using Excel. […] The permeability coefficient (Papp) was calculated using the following equation: […]
# rat gut microbiota = experiment: Stability in rat gut microbiota; details: rat fecal matter, 37° C., 0-120 min
# Experimental: FIG. 7A. […] Gut microbiota from rat and human sources were extracted and purified in PBS at pH 6.0 or 7.4. A stock solution of 10 mM was prepared and a 10 μL aliquot was added to extracted microorganisms at 0 min. […] Values represent mean+SEM of n=3 separate experiments.
# FIG. 7B. […] Gut microbiota from rat and human sources were extracted and purified in PBS at pH 6.0 or 7.4. A stock solution of 10 mM was prepared and a 10 μL aliquot was added to extracted microorganisms at 0 min. […] Values represent mean+SEM of n=3 separate experiments.
# Rat fecal material was obtained and weighed. One capsule of the raw probiotics was crushed and weighed prior to use. The weighed samples were then solubilized in PBS at pH 6.0 and 7.4 to extract microorganisms. The samples were centrifuged at 18,000×g for 10 min. to remove particulates and the supernatant was used to evaluate test article stability. An aliquot (50 μL) of the test article stock solutions were added to the fecal extract (final concentration 0.5 mM) and allowed to incubate at 37° C. […] The collected sample was quenched in acetonitrile/0.1% formic acid mixture.
# [2] = tested on: orexin/tTA; Tet-O diphtheria toxin A mice (DTA mice); type: in vivo, mouse; details: for cataplexy (C) time: Compound I-19 0.3, 1, 3 mg/kg i.p., Compound I-4 0.3, 1, 3 mg/kg p.o., Des 5 mg/kg p.o.; for REM time: same doses; for latency to REM: vehicle about 100 min
# [3] = tested on: HEK293 uptake transporter overexpressing and control cells; experiment: Resazurin-based cytotoxicity assay
# Experimental: The cells were plated on 96-well plates. Prior to the experiment the medium was removed, and cells were rinsed with 2×100 μL of the respective buffer for uptake transporter transfected and control cell lines.
# [4] = MATE1 assay, 12.50 μM, incubation 30 + 3 min
# [5] = MATE1 assay, 50.00 μM, incubation 30 + 3 min
# [6] = MATE1 assay, 100.00 μM, incubation 30 + 3 min
# [7] = MATE2-K assay, 12.50 μM, incubation 30 + 1 min
# [8] = MATE2-K assay, 50.00 μM, incubation 30 + 1 min
# [9] = MATE2-K assay, 100.00 μM, incubation 30 + 1 min
# [10] = OAT1 assay, 12.50 μM, incubation 30 + 2 min
# [11] = OAT1 assay, 50.00 μM, incubation 30 + 2 min
# [12] = OAT1 assay, 100.00 μM, incubation 30 + 2 min
# [13] = OAT3 assay, 12.50 μM, incubation 30 + 1 min
# [14] = OAT3 assay, 50.00 μM, incubation 30 + 1 min
# [15] = OAT3 assay, 100.00 μM, incubation 30 + 1 min
# [16] = OATP1B1 assay, 12.50 μM, incubation 30 + 3 min
# [17] = OATP1B1 assay, 50.00 μM, incubation 30 + 3 min
# [18] = OATP1B1 assay, 100.00 μM, incubation 30 + 3 min
# [19] = OATP1B3 assay, 12.50 μM, incubation 30 + 2 min
# [20] = OATP1B3 assay, 50.00 μM, incubation 30 + 2 min
# [21] = OATP1B3 assay, 100.00 μM, incubation 30 + 2 min
# [22] = OCT1 assay, 12.50 μM, incubation 30 + 3 min
# [23] = OCT1 assay, 50.00 μM, incubation 30 + 3 min
# [24] = OCT1 assay, 100.00 μM, incubation 30 + 3 min
# [25] = OCT2 assay, 12.50 μM, incubation 30 + 1 min
# [26] = OCT2 assay, 50.00 μM, incubation 30 + 1 min
# [27] = OCT2 assay, 100.00 μM, incubation 30 + 1 min
# [28] = last 6 h of the dark period (ZT19-ZT24)
smiles,measurement,setting,value
COCCOC1(c2ccc(Cl)cc2)c2ccccc2C2=NCCN21 (stereo not drawn) [Compound I-4],Papp,[1],0.155 ×10⁻⁶ cm/s
same,% parent compound remaining,"rat gut microbiota; pH 6, 0.5 mM",≥ 100%
same,% parent compound remaining,"rat gut microbiota; pH 7.4, 0.5 mM",≥ 100%
same,REM:NR ratios (effect),[2]; 6 h after dosing at ZT12,decreased REM:NR ratios
same,"W consolidation (W bout duration, number of W bouts)",[2]; 6 h after dosing at ZT12,Compound I-4 at 3 mg/kg consolidated W
same,body temperature (Tb),[2]; 6 h after dosing at ZT12,No significant effects on Tb were found
same,latency to REM (effect),[2]; 6 h after dosing at ZT12,Compound I-4 at 3 mg/kg significantly (p<0.05) increased the latency to REM
same,locomotor activity (LMA),[2]; 6 h after dosing at ZT12,increased significantly overall
same,total W or NREM time,[2]; 6 h after dosing at ZT12,without any significant effects on total W or NREM
same,cataplexy (C) time,[2]; 6 h after dosing at ZT12,significantly (p<0.05) decreased following Compound I-4 at the two highest doses (1 and 3 mg/kg)
same,REM time,[2]; 6 h after dosing at ZT12,significantly (p<0.05) decreased following Compound I-4 at the two highest doses (1 and 3 mg/kg)
Clc1ccc(C2(OCC3OCCO3)c3ccccc3C3=NCCN32)cc1 (stereo not drawn) [Compound I-19],Papp,[1],0.106 ×10⁻⁶ cm/s
same,Cell viability (cytotoxic effect),"[3]; HEK293-MATE1-LV, -MATE2-K-LV, -OAT1-LV, -OAT3-LV, -OATP1B1-LV, -OATP1B3-LV, -OCT1-LV, -OCT2-LV and control cells",did not reduce the cell viability
same,"Relative cell viability, control cells",[3]; [4],97.67 ± 3.73 % of control
same,"Relative cell viability, transfected cells",[3]; [4],97.90 ± 1.86 % of control
same,"Relative cell viability, control cells",[3]; [5],93.64 ± 2.83 % of control
same,"Relative cell viability, transfected cells",[3]; [5],95.88 ± 2.04 % of control
same,"Relative cell viability, control cells",[3]; [6],85.16 ± 2.74 % of control
same,"Relative cell viability, transfected cells",[3]; [6],97.35 ± 2.64 % of control
same,"Relative cell viability, control cells",[3]; [7],104.66 ± 2.14 % of control
same,"Relative cell viability, transfected cells",[3]; [7],101.07 ± 1.57 % of control
same,"Relative cell viability, control cells",[3]; [8],104.14 ± 1.46 % of control
same,"Relative cell viability, transfected cells",[3]; [8],106.73 ± 1.88 % of control
same,"Relative cell viability, control cells",[3]; [9],84.34 ± 2.47 % of control
same,"Relative cell viability, transfected cells",[3]; [9],101.71 ± 1.17 % of control
same,"Relative cell viability, control cells",[3]; [10],98.64 ± 5.98 % of control
same,"Relative cell viability, transfected cells",[3]; [10],97.97 ± 3.47 % of control
same,"Relative cell viability, control cells",[3]; [11],97.24 ± 5.90 % of control
same,"Relative cell viability, transfected cells",[3]; [11],95.01 ± 3.42 % of control
same,"Relative cell viability, control cells",[3]; [12],90.45 ± 6.49 % of control
same,"Relative cell viability, transfected cells",[3]; [12],88.69 ± 3.44 % of control
same,"Relative cell viability, control cells",[3]; [13],102.06 ± 3.84 % of control
same,"Relative cell viability, transfected cells",[3]; [13],99.42 ± 0.98 % of control
same,"Relative cell viability, control cells",[3]; [14],92.66 ± 3.32 % of control
same,"Relative cell viability, transfected cells",[3]; [14],97.87 ± 1.31 % of control
same,"Relative cell viability, control cells",[3]; [15],83.05 ± 3.00 % of control
same,"Relative cell viability, transfected cells",[3]; [15],97.06 ± 1.13 % of control
same,"Relative cell viability, control cells",[3]; [16],96.78 ± 4.68 % of control
same,"Relative cell viability, transfected cells",[3]; [16],99.91 ± 0.74 % of control
same,"Relative cell viability, control cells",[3]; [17],93.42 ± 4.34 % of control
same,"Relative cell viability, transfected cells",[3]; [17],98.71 ± 0.94 % of control
same,"Relative cell viability, control cells",[3]; [18],89.12 ± 4.63 % of control
same,"Relative cell viability, transfected cells",[3]; [18],94.19 ± 1.27 % of control
same,"Relative cell viability, control cells",[3]; [19],103.94 ± 0.47 % of control
same,"Relative cell viability, transfected cells",[3]; [19],102.23 ± 1.09 % of control
same,"Relative cell viability, control cells",[3]; [20],101.22 ± 1.01 % of control
same,"Relative cell viability, transfected cells",[3]; [20],101.42 ± 1.04 % of control
same,"Relative cell viability, control cells",[3]; [21],95.06 ± 1.40 % of control
same,"Relative cell viability, transfected cells",[3]; [21],97.75 ± 0.86 % of control
same,"Relative cell viability, control cells",[3]; [22],101.25 ± 5.53 % of control
same,"Relative cell viability, transfected cells",[3]; [22],92.84 ± 3.54 % of control
same,"Relative cell viability, control cells",[3]; [23],98.64 ± 5.26 % of control
same,"Relative cell viability, transfected cells",[3]; [23],92.82 ± 3.41 % of control
same,"Relative cell viability, control cells",[3]; [24],92.32 ± 6.47 % of control
same,"Relative cell viability, transfected cells",[3]; [24],86.46 ± 3.25 % of control
same,"Relative cell viability, control cells",[3]; [25],99.87 ± 1.09 % of control
same,"Relative cell viability, transfected cells",[3]; [25],99.66 ± 1.41 % of control
same,"Relative cell viability, control cells",[3]; [26],97.55 ± 0.85 % of control
same,"Relative cell viability, transfected cells",[3]; [26],99.58 ± 1.02 % of control
same,"Relative cell viability, control cells",[3]; [27],87.66 ± 0.85 % of control
same,"Relative cell viability, transfected cells",[3]; [27],96.29 ± 1.73 % of control
same,decrease of the relative cell viability compared to solvent (DMSO),[3]; all uptake transporter overexpressing and control cells,less than 20%
same,% parent compound remaining,"rat gut microbiota; pH 6, 0.5 mM",at or above 100% for all time points except 120 min
same,% parent compound remaining,"rat gut microbiota; pH 7.4, 0.5 mM",time-dependent decrease in the amount of parent compound present; also recorded: unstable
same,body temperature (Tb),[2]; 6 h after dosing at ZT12,No significant effects
same,locomotor activity (LMA),[2]; 6 h after dosing at ZT12,No significant effects
same,total W or NREM time,[2]; 6 h after dosing at ZT12,No significant effects on total W or NREM were observed
same,cataplexy (C) time,[2]; 6 h after dosing at ZT12,Total C time significantly decreased following all three concentrations
same,REM time,[2]; 6 h after dosing at ZT12,REM time significantly decreased following Compound I-19 at the two highest doses (1 and 3 mg/kg)
same,REM:NR ratio,[2]; Compound I-19 1 mg/kg i.p.,~0.2
same,latency to REM,[2]; Compound I-19 1 mg/kg i.p.,~275 min
same,REM:NR ratio,[2]; Compound I-19 3 mg/kg i.p.,~0.1
same,latency to REM,[2]; Compound I-19 3 mg/kg i.p.,~325 min
same,"cataplexy (C), hourly, cumulative and total time",[2]; [28],significantly less following the high concentration of Compound I-19 (3 mg/kg)
same,"time in W, NREM or REM",[2]; [28],not different from Veh
